According to BindingDB's records for doi:10.1016/j.bmcl.2010.08.042 (Vanderbilt University Medical Center, 2010):

Biological target: T1, Muscarinic acetylcholine receptor M1 (Homo sapiens, UniProt P11229)
T1 sequence (P11229 whole entry): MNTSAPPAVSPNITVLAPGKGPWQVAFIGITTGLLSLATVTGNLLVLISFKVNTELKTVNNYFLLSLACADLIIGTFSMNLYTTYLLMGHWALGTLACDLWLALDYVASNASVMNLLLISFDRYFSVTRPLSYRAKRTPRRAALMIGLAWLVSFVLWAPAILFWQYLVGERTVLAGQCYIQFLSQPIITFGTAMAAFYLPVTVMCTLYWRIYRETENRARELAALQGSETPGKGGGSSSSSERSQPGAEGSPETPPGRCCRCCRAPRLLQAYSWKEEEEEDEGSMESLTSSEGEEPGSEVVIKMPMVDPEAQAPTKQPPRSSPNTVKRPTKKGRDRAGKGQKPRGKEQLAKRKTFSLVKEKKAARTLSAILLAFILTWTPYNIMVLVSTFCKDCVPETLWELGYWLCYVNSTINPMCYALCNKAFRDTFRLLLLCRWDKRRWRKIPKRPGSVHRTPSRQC
Assay: Positive allosteric modulation of muscarinic M1 receptor expressed in CHO cells assessed as effect on acetylcholine-induced intracellular calcium mobilization after 1 hr by FLIPR assay

- EC50: 6.1 µM
Structure (SMILES): O=C1C(=O)N(Cc2ccc(Br)cc2)c2ccccc21
